| Structure (SMILES) | melting point |
| --- | --- |
| O=C(O)c1ccc(-c2ncc(-c3ccccc3Cl)o2)cc1 [Compound 555] | 276 to 277 °C |
| CS(=O)(=O)Nc1cccc(-c2nnc(-c3ccc(C(=O)O)cc3)o2)c1 [Compound 12] | > 270 °C |
| CC(C)(C)c1ccc(-c2nc(-c3ccc(C(=O)O)cc3)no2)cc1 [Compound 141] | 237 to 239 °C |
| CN(C)c1ccccc1-c1nnc(-c2cccc(C(=O)O)c2)o1 [Compound 605] | 170 to 172 °C |
| CC(C)c1ccc(-c2nc(-c3cccc(C(=O)O)c3)ns2)cc1 [Compound No. 323, 3-[5-(4-isopropylphenyl)-[1,2,4]thiadiazol-3-yl]-benzoic acid] | 165 to 167 °C |
| COc1ccccc1-c1cnc(-c2cccc(C(=O)O)c2)o1 [Compound 593] | 244 to 246 °C |
| O=C(O)c1ccc(-c2ncc(-c3cccc(F)c3)o2)cc1 [Compound 553] | 264 to 265 °C |
| O=C(O)c1ccc(-c2ncc(-c3ccc(Br)cc3)o2)cc1 [Compound 642] | 259 to 261 °C |
| COc1ccc(-c2noc(-c3cccc(C(=O)O)c3)n2)cc1 [Compound 509] | 281.5 to 283 °C |
| Cc1ccccc1-c1cnc(-c2ccc(C(=O)O)cc2)o1 [Compound 643] | 284 to 286 °C |
| O=C(O)c1ccc(-c2ncc(-c3ccc(Cl)cc3)o2)cc1 [Compound 639] | 260 to 263 °C |
| CN(C)c1ccc(-c2nnc(-c3cccc(C(=O)O)c3)o2)cc1 [Compound 4] | 268 to 270 °C |
| O=C(O)c1ccc(-c2ncc(-c3ccc(F)cc3)o2)cc1 [Compound 554] | 245 to 246 °C |
| O=C(O)c1ccc(-c2cc(-c3cccc(F)c3)no2)cc1 [Compound 536] | 319 to 321 °C |
| Cc1ccc(-c2cc(-c3ccc(C(=O)O)cc3)on2)cc1 [Compound 541] | 307 to 308 °C |
| O=C(O)c1cccc(-c2nnc(-c3ccc4cc[nH]c4c3)o2)c1 [Compound 317] | > 290 °C (dec.) |
| O=C(O)c1cccc(-c2cc(-c3ccc(F)cc3)no2)c1 [Compound 504] | 273 to 274.5 °C |
| O=C(O)c1cccc(-c2cc(-c3ccc(CO)cc3)on2)c1 [Compound 575] | 248 to 250 °C |
| O=C(O)c1cccc(-c2nc(-c3ccc(-c4ccccc4)cc3)n[nH]2)c1 [Compound 429] | > 300 °C |
| O=C(O)c1cccc(-c2cc(-c3cccc(F)c3)on2)c1 [Compound 475] | 242 to 243 °C |
| O=C(O)c1cccc(-c2cc(-c3ccc(F)cc3)[nH]n2)c1 [Compound No. 552, 3-[5-(4-fluorophenyl)-1H-pyrazol-3-yl]benzoic acid] | 270.5 to 272 °C |
| O=C(O)c1cccc(-c2ncc(-c3ccc(C(F)(F)F)cc3)o2)c1 [Compound 586] | 223.5 to 225 °C |
| O=C(O)c1cccc(-c2nc(-c3ccccc3F)no2)c1 [Compound No. 506, 3-[3-(2-fluorophenyl)-[1,2,4]oxadiazole-5-yl] benzoic acid] | 233 to 234 °C |
| CC(C)(C)C1CCC(c2nnc(-c3cccc(C(=O)O)c3)o2)CC1 (stereo not shown) [Compound 622] | 245 to 247 °C |
| O=C(O)c1cccc(-c2nnc(-c3ccc(C(=O)N4CCCCC4)cc3)o2)c1 [Compound 285] | 253 to 256 °C |
| CN(C)C(=O)c1ccc(-c2nnc(-c3ccc(C(=O)O)cc3)o2)cc1 [Compound 278] | > 310 °C |
| COc1ccccc1-c1n[nH]c(-c2cccc(C(=O)O)c2)n1 [Compound 459] | 287 to 290 °C |
| O=C(O)c1cccc(-c2nc(-c3cccc(F)c3)no2)c1 [Compound 507] | 221.5 to 223 °C |

| Structure (SMILES) | melting point |
| --- | --- |
| O=C(O)c1ccc(-c2ncc(-c3cc(F)ccc3F)o2)cc1 [Compound 630] | 301 to 302 °C |
| CC(C)c1ccc(-c2csc(-c3cccc(C(=O)O)c3)n2)cc1 [Compound No. 289, 3-[4-(4-isopropylphenyl)thiazol-2-yl]-benzoic acid] | 206 to 208 °C |
| O=C(O)c1cccc(-c2cc(-c3ccccc3)on2)c1 [Compound 477] | 245 to 247 °C |
| COc1ccc(-c2nnc(-c3ccc(C(C)C)cc3)o2)cc1C(=O)O [Compound 402] | 174 to 177 °C |
| O=C(O)c1cccc(-c2nnc(-c3ccc(N4CCCCC4)cc3)o2)c1 [Compound 83] | 275 to 277 °C |
| CC(C)c1ccc(-c2nnc(-c3ccc(C(=O)O)cc3)s2)cc1 [Compound No. 324, 4-[5-(4-isopropylphenyl)-[1,3,4]thiadiazol-2-yl]benzoic acid] | > 300 °C |
| O=C(O)c1ccc(-c2cc(-c3ccc(F)cc3F)on2)cc1 [Compound 531] | 317 to 319 °C |
| COc1ccc(-c2n[nH]c(-c3cccc(C(=O)O)c3)n2)cc1 [Compound No. 424, 3-[5-(4-methoxy-phenyl)-2H-[1,2,4]triazol-3-yl]-benzoic acid] | 287 to 289 °C |
| O=C(O)c1cccc(-c2nc(-c3ccc(C(F)(F)F)cc3)n[nH]2)c1 [Compound 456] | 235 to 238 °C |
| O=C(O)c1cccc(-c2cc(-c3ccc(F)cc3F)no2)c1 [Compound 499] | > 278.5 °C |
| N#Cc1c(-c2cccc(C(=O)O)c2)noc1-c1ccccc1 [Compound 487] | 249 to 250 °C |
| O=C(O)c1cccc(-c2noc(-c3ccccc3)c2C=NO)c1 [Compound 486] | 198 to 202 °C |
| O=C(O)c1ccc(-c2ncc(-c3cccc(OCc4ccccc4)c3)o2)cc1 [Compound 646] | 210 to 211 °C |
| CN(C)c1ccc(Cc2nnc(-c3ccc(C(=O)O)cc3)o2)cc1 [Compound 86] | 243 to 245 °C |
| O=C(O)c1cccc(-c2cc(-c3ccc(F)cc3)on2)c1 [Compound 476] | 266.5 to 268 °C |
| O=C(O)c1cccc(-c2nnc(-c3ccc(N4CCCC4)cc3)o2)c1 [Compound 280] | 274 to 276 °C |
| CC(C)c1ccc(-c2cc(-c3cccc(C(=O)O)c3)on2)cc1 [Compound 291] | 200 to 212 °C |
| O=C(O)c1ccc(-c2cc(-c3ccccc3F)on2)cc1 [Compound 529] | 292.5 to 293.5 °C |
| CC(C)c1ccc(-c2ccc(-c3cccc(C(=O)O)c3)s2)cc1 [Compound No. 400, 3-[5-(4-isopropylphenyl)thiophen-2-yl]benzoic acid] | 233 to 235 °C |
| CC(C)c1ccc(-c2nnc(-c3cccc(C(=O)O)c3Cl)o2)cc1 [Compound 401] | 152 to 155 °C |
| O=C(O)c1cccc(-c2nc(-c3ccccc3F)n[nH]2)c1 [Compound 425] | > 310 °C |
| COC(=O)c1cccc(-c2cc(-c3ccccc3F)on2)c1 [Compound 464] | 112 to 113.5 °C |
| CC(C)c1ccc(-c2cnc(-c3ccc(C(=O)O)cc3)o2)cc1 [Compound 635] | 233 to 234 °C |
| CCc1ccc(-c2cnc(-c3cccc(C(=O)O)c3)o2)cc1 [Compound 590] | 174 to 175 °C |
| O=C(O)c1cccc(-c2nnc(-c3ccccc3)o2)c1 [Compound 615] | 190 to 192 °C |
| O=C(O)c1ccc(-c2cc(-c3ccc(F)cc3)on2)cc1 [Compound 530] | 318 to 319 °C |
| O=C(O)c1cccc(-c2nc(-c3ccc4c(c3)OCO4)no2)c1 [Compound 510] | 245 to 246 °C |
